Laboratory results taken from patent US20210369680A1, “METHODS OF TREATING DISEASES AND DISORDERS RESULTING FROM BETA CORONAVIRUS INFECTION” (T3D Therapeutics, Inc., priority 2020, published 2021).

What was measured:
[1] = Fasting plasma glucose in 2-week clinical study; type: in vivo, human; design: FPG on Day 1 / FPG on Day 14 / FPG on Day 21 / FPG Change from D 1 to D 14 / FPG Change from D 1 to D 21: unit not given here
Excerpt: Fasting Plasma Glucose Levels for Compound 11 from a Clinical Study
FPG measured in millimoles/Liter (MMOL/L), averaged over all subjects, was lowered from day 1 to day 14. For each individual dose group day 14 FPG levels were lower than day 1 levels. […] For the two highest doses, the FPG remained lower on follow-up testing on day 21, one week after end of treatment.

human PPARγ = target: T1, human PPARγ (Homo sapiens, UniProt P37231); assay: Human PPAR activation, transient transfection study in transfected CV-1 cells; type: cell-based
T1 construct: expressed in transfected cells; host or cells: CV-1 cells
T1 sequence (P37231 1-505): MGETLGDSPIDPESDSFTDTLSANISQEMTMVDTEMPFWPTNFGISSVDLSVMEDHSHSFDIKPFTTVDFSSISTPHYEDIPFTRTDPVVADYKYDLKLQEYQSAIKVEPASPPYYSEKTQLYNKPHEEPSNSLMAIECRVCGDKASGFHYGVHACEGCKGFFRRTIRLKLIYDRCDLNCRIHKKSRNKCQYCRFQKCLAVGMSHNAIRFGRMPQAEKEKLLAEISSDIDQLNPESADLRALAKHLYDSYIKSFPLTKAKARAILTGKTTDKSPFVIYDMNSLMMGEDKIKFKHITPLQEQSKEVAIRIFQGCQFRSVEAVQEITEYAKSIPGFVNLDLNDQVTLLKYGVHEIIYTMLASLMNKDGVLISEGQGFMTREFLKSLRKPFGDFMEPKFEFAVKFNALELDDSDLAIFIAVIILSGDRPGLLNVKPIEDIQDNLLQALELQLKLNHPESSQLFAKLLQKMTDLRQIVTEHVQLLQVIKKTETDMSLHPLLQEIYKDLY
Excerpt: (§1) Human PPAR Activation by Compound of Example 11 in Transient Transfection Study
(§2) Table 2 summarizes the results of studies performed in transfected CV-1 cells with three different lots of Compound of Example 11. […].

human PPARα = target: T2, human PPARα (Homo sapiens, UniProt Q07869); assay: as above; type: cell-based
T2 construct: expressed in transfected cells; host or cells: CV-1 cells
T2 sequence (Q07869 1-468): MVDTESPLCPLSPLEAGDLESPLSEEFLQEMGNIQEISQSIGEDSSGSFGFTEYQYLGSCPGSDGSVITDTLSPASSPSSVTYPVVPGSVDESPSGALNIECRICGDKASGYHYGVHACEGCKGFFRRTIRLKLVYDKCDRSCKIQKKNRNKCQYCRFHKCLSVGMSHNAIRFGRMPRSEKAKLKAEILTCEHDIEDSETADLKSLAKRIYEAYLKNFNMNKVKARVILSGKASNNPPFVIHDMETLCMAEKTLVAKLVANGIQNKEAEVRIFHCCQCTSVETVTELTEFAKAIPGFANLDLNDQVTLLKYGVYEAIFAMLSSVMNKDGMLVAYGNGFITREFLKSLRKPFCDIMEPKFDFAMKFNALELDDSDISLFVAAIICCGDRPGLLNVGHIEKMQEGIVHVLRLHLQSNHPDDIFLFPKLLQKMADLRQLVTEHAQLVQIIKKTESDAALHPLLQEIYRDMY
Excerpt: as §1, §2

human PPARδ = target: T3, human PPARδ (Homo sapiens, UniProt Q03181); assay: as above; type: cell-based
T3 construct: expressed in transfected cells; host or cells: CV-1 cells
T3 sequence (Q03181 1-441): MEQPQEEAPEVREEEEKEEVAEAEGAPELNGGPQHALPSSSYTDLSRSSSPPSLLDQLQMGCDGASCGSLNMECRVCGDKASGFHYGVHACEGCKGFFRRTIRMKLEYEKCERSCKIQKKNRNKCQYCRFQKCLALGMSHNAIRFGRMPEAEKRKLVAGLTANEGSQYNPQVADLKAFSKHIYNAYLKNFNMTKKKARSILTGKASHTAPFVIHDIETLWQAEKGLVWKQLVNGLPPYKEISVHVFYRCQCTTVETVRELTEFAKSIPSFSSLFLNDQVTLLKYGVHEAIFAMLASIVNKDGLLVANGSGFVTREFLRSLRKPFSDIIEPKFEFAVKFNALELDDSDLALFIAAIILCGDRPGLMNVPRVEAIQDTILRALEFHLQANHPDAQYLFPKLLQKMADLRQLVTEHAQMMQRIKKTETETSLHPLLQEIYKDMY

Structure (SMILES): CCc1oc(-c2ccc(OC)cc2)nc1CCOc1ccc2c(c1)CC[C@H]2CC(=O)[O-].[Na+] [Example 11, Sodium (S)-2-(5-(2-(5-ethyl-2-(4-methoxyphenyl)oxazol-4-yl)ethoxy)-2,3-dihydro-1H-inden-1-yl)acetate]
- FPG Change from D 1 to D 14 ([1]; 3 mg): −2.2
- FPG Change from D 1 to D 21 ([1]; 3 mg): 2.5
- FPG on Day 1 ([1]; 3 mg): 94.6
- FPG on Day 14 ([1]; 3 mg): 92.4
- FPG on Day 21 ([1]; 3 mg): 97.1
- FPG Change from D 1 to D 14 ([1]; 10 mg): −3.4
- FPG Change from D 1 to D 21 ([1]; 10 mg): 0.5
- FPG on Day 1 ([1]; 10 mg): 101.4
- FPG on Day 14 ([1]; 10 mg): 98
- FPG on Day 21 ([1]; 10 mg): 101.9
- FPG Change from D 1 to D 14 ([1]; 30 mg): −4.6
- FPG Change from D 1 to D 21 ([1]; 30 mg): −0.1
- FPG on Day 1 ([1]; 30 mg): 99.2
- FPG on Day 14 ([1]; 30 mg): 94.6
- FPG on Day 21 ([1]; 30 mg): 99.1
- FPG Change from D 1 to D 14 ([1]; 90 mg): −7.0
- FPG Change from D 1 to D 21 ([1]; 90 mg): −4.7
- FPG on Day 1 ([1]; 90 mg): 101.1
- FPG on Day 14 ([1]; 90 mg): 94.1
- FPG on Day 21 ([1]; 90 mg): 96.4
- Fasting Plasma Glucose (FPG) levels ([1]; 2-week clinical study, 34 subjects): lowered as a function of dose
- FPG Change from D 1 to D 14 ([1]; All subjects): −4.3
- FPG Change from D 1 to D 21 ([1]; All subjects): −1
- FPG on Day 1 ([1]; All subjects): 99.1
- FPG on Day 14 ([1]; All subjects): 94.8
- FPG on Day 21 ([1]; All subjects): 98.1
- Peak effect PPARγ (human PPARγ): 29.49
- Emax (human PPARγ; CV-1, read-out: Average % maximal response PPARγ): 74%
- Peak effect PPARα (human PPARα): 1.87
- Emax (human PPARα; CV-1, average of three lots, read-out: Average % maximal response PPARα): 49%
- Average % maximal response PPARα (human PPARα; average of three lots): significantly reduced
- Peak effect PPARδ (human PPARδ): 17.68
- greater potency in activating human PPARδ over human PPARγ (human PPARδ): 15 fold
- selectivity over the human PPAR alpha subtype (human PPARδ): ~30 fold
- Emax (human PPARδ; CV-1, read-out: Average % maximal response PPARδ): 76%
